Converted amounts (≈) assume the structure as drawn. The source made the active and inactive calls. The rule behind the calls is not given here.
What was measured:
[1] = Ratio of IC50 for Trypanosoma brucei gambiense STIB930 to IC50 for wild-type Trypanosoma brucei rhodesiense […]; type: functional
[2] = system: Trypanosoma brucei rhodesiense; assay: Antitrypanosomal activity against wild-type Trypanosoma brucei rhodesiense STIB900 by Alamar blue assay; type: functional, organism-based
[3] = system: Trypanosoma brucei gambiense; assay: Antitrypanosomal activity against Trypanosoma brucei gambiense ITMAP141267 by Alamar blue assay; type: functional, organism-based
[4] = system: Trypanosoma brucei gambiense; assay: Ratio of IC50 for Trypanosoma brucei gambiense K03048 to IC50 for Trypanosoma brucei gambiense STIB930; type: functional
[5] = system: Trypanosoma brucei gambiense; assay: Antitrypanosomal activity against Trypanosoma brucei gambiense STIB930 by Alamar blue assay; type: functional, organism-based
[6] = system: Trypanosoma brucei rhodesiense; assay: Ratio of IC50 for melasoprol-resistant Trypanosoma brucei rhodesiense STIB900 to IC50 for wild-type Trypanosoma brucei rhodesiense […]; type: functional
[7] = system: Trypanosoma brucei brucei; assay: Ratio of IC50 for Trypanosoma brucei brucei AT1KO to IC50 for Trypanosoma brucei brucei BS221; type: functional
[8] = Ratio of IC50 for Trypanosoma brucei gambiense ITMAP141267 to IC50 for wild-type Trypanosoma brucei rhodesiense […]; type: functional
[9] = Ratio of IC50 for Trypanosoma brucei gambiense K03048 to IC50 for wild-type Trypanosoma brucei rhodesiense STIB900; type: functional
[10] = system: Trypanosoma brucei gambiense; assay: Antitrypanosomal activity against Trypanosoma brucei gambiense K03048 by Alamar blue assay; type: functional, organism-based
[11] = system: Trypanosoma brucei brucei; assay: Antitrypanosomal activity against Trypanosoma brucei brucei BS221 by Alamar blue assay; type: functional, organism-based
[12] = system: Trypanosoma brucei brucei; assay: Antitrypanosomal activity against Trypanosoma brucei brucei AT1KO by Alamar blue assay; type: functional, organism-based
[13] = system: Trypanosoma brucei rhodesiense; assay: Ratio of IC50 for pentamidine-resistant Trypanosoma brucei rhodesiense STIB900 to IC50 for wild-type Trypanosoma brucei rhodesiense STIB900; type: functional
[14] = system: Trypanosoma brucei rhodesiense; assay: Antitrypanosomal activity against melasoprol-resistant Trypanosoma brucei rhodesiense STIB900 by Alamar blue assay; type: functional, organism-based
[15] = system: Trypanosoma brucei rhodesiense; assay: Antitrypanosomal activity against pentamidine-resistant Trypanosoma brucei rhodesiense STIB900 by Alamar blue assay; type: functional, organism-based
[16] = system: Trypanosoma brucei rhodesiense; assay: Antitrypanosomal activity against wild-type Trypanosoma brucei rhodesiense STIB900 infected in NMRI mouse assessed as survival of mouse at 100 mg/kg, po for 4 days; type: functional
[17] = system: Trypanosoma brucei rhodesiense; assay: Antitrypanosomal activity against wild-type Trypanosoma brucei rhodesiense STIB900 infected in NMRI mouse assessed as survival of mouse at 5 mg/kg, po for 4 days; type: functional
[18] = system: Trypanosoma brucei rhodesiense; assay: Antitrypanosomal activity against wild-type Trypanosoma brucei rhodesiense STIB900 infected in NMRI mouse assessed as survival of mouse at 25 mg/kg, po for 4 days; type: functional
[19] = system: Trypanosoma brucei brucei; assay: Antitrypanosomal activity against Trypanosoma brucei brucei GVR35 infected in NMRI mouse CNS model assessed as survival of mouse at 100 mg/kg, po for 5 days; type: functional
[20] = system: Trypanosoma brucei rhodesiense; assay: Antitrypanosomal activity against wild-type Trypanosoma brucei rhodesiense STIB900 infected in NMRI mouse assessed as cure from infection at 25 mg/kg, po for 4 days; type: functional, organism-based; parameters: dose 25 mg/kg
[21] = system: Trypanosoma brucei brucei; assay: Antitrypanosomal activity against Trypanosoma brucei brucei GVR35 infected in NMRI mouse CNS model assessed as survival of mouse at 75 mg/kg, po for 5 days; type: functional
[22] = system: Trypanosoma brucei brucei; assay: Antitrypanosomal activity against Trypanosoma brucei brucei GVR35 infected in NMRI mouse CNS model assessed as survival of mouse at 10 mg/kg, po for 10 days; type: functional
[23] = system: Trypanosoma brucei brucei; assay: Antitrypanosomal activity against Trypanosoma brucei brucei GVR35 infected in NMRI mouse CNS model assessed as survival of mouse at 50 mg/kg, po for 5 days; type: functional
[24] = system: Trypanosoma brucei rhodesiense; assay: Antitrypanosomal activity against wild-type Trypanosoma brucei rhodesiense STIB900 infected in NMRI mouse assessed as survival of mouse at 50 mg/kg, po for 4 days; type: functional
[25] = system: Trypanosoma brucei brucei; assay: Antitrypanosomal activity against Trypanosoma brucei brucei GVR35 infected in NMRI mouse CNS model assessed as cure from infection at 25 mg/kg, po for 10 days; type: functional, organism-based; parameters: dose 25 mg/kg
[26] = system: Trypanosoma brucei brucei; assay: Antitrypanosomal activity against Trypanosoma brucei brucei GVR35 infected in NMRI mouse CNS model assessed as survival of mouse at 25 mg/kg, po for 5 days; type: functional
[27] = system: Trypanosoma brucei brucei; assay: Antitrypanosomal activity against Trypanosoma brucei brucei GVR35 infected in NMRI mouse CNS model assessed as cure from infection at 50 mg/kg, po for 5 days; type: functional, organism-based; parameters: dose 50 mg/kg
[28] = system: Trypanosoma brucei rhodesiense; assay: Antitrypanosomal activity against wild-type Trypanosoma brucei rhodesiense STIB900 infected in NMRI mouse assessed as cure from infection at 50 mg/kg, po for 4 days; type: functional, organism-based; parameters: dose 50 mg/kg
[29] = system: Trypanosoma brucei brucei; assay: Antitrypanosomal activity against Trypanosoma brucei brucei GVR35 infected in NMRI mouse CNS model assessed as cure from infection at 25 mg/kg, po for 5 days; type: functional, organism-based; parameters: dose 25 mg/kg
[30] = system: Trypanosoma brucei brucei; assay: Antitrypanosomal activity against Trypanosoma brucei brucei GVR35 infected in NMRI mouse CNS model assessed as survival of mouse at 50mg/kg, po for 10 days; type: functional
[31] = system: Trypanosoma brucei brucei; assay: Antitrypanosomal activity against Trypanosoma brucei brucei GVR35 infected in NMRI mouse CNS model assessed as survival of mouse at 25 mg/kg, po for 10 days; type: functional
[32] = system: Trypanosoma brucei rhodesiense; assay: Antitrypanosomal activity against wild-type Trypanosoma brucei rhodesiense STIB900 infected in NMRI mouse assessed as cure from infection at 100 mg/kg, po for 4 days; type: functional, organism-based; parameters: dose 100 mg/kg
[33] = system: Trypanosoma brucei rhodesiense; assay: Antitrypanosomal activity against wild-type Trypanosoma brucei rhodesiense STIB900 infected in NMRI mouse assessed as survival of mouse at 20 mg/kg, ip for 4 days; type: functional; details: route intraperitoneal
[34] = system: Trypanosoma brucei rhodesiense; assay: Antitrypanosomal activity against wild-type Trypanosoma brucei rhodesiense STIB900 infected in NMRI mouse assessed as survival of mouse at 5 mg/kg, ip for 4 days; type: functional; details: route intraperitoneal

Compound	Ratio IC50 [1]	IC50 [2] [ng/mL]	IC50 [3] [ng/mL]	IC50 [5] [ng/mL]	Ratio IC50 [6]	Ratio IC50 [7]	Ratio IC50 [8]	Ratio IC50 [9]	IC50 [10] [ng/mL]	IC50 [11] [ng/mL]	IC50 [12] [ng/mL]	Ratio IC50 [13]	IC50 [14] [ng/mL]	IC50 [15] [ng/mL]	MSD [16] [days]	MSD [18] [days]	MSD [19] [days]	Activity [20]	Activity [22]	also measured
Nc1nc(N)nc(Nc2ccc([As]3SCC(CO)S3)cc2)n1 (centres undefined) [MELARSOPROL]	3.9	1.4	2.7	5.3	42	5.2	2	2.3	3.1	3.6	18.7	20.9	56.7	28.2						Ratio IC50 [4]: 14
CO/N=C(/N)c1ccc(-c2ccc(-c3ccc(/C(N)=N/O)cc3)o2)nc1															>60	>60	>180	Active	Active	MSD [17]: >52.75 days; MSD [21]: >166 days
CONC(=N)c1ccc(-c2ccc(-c3ccc(C(=N)NOC)cc3)o2)cc1 [PAFURAMIDINE]																>60	>167.8	Active		MSD [23]: >153.6 days; MSD [24]: >60 days; Activity [25]: inactive; MSD [26]: 75.4 days; Activity [27]: inactive; Activity [28]: Active; Activity [29]: inactive; MSD [30]: >172.2 days; MSD [31]: >146.6 days
N=C(NO)c1ccc(-c2ccc(-c3ccc(/C(N)=N\O)cc3)o2)cc1															50					Activity [32]: inactive
N=C(NO)c1ccc(-c2ccc(-c3ccc(/C(N)=N/O)cn3)o2)cc1															>54				Active	
N=C(N)c1ccc(OCCCCCOc2ccc(C(=N)N)cc2)cc1 [PENTAMIDINE]	0.9	1.2 (≈ 0.00352 µM)	4.2 (≈ 0.0123 µM)	1.1 (≈ 0.00323 µM)	105.4	4.3	3.6	13.1	15.5 (≈ 0.0455 µM)	0.9 (≈ 0.00264 µM)	4.1 (≈ 0.012 µM)	113.1	124 (≈ 0.366 µM)	134 (≈ 0.392 µM)						MSD [33]: >57.5 days; MSD [34]: >45 days

Source: ChEMBL document CHEMBL1649218, “New treatment option for second-stage African sleeping sickness: in vitro and in vivo efficacy of aza analogs of DB289” (Antimicrob Agents Chemother, 2009)
